From US5288726A, “Tetrahydrothienopyridine derivatives, furo and pyrrolo analogs thereof and their preparation and uses for inhibiting blood platelet aggregation” (Ube Industries Limited, priority 1991, dated 1994)

Test system: blood platelet aggregation
Experiment: Inhibition of blood platelet aggregation (ex vivo, ADP or collagen induced, rats dosed orally)
Type: in vivo, rat (SD strain, female)
Conditions: rat, oral, 4 hours before test, ADP or collagen (inducer not given), read-out: % Inhibition of blood platelet aggregation (Test Ex. 2)
Method: Inhibition of Blood Platelet Aggregation Female rats of the SD strain (supplied by Japan Charles River Inc.) were divided into groups of 4 each for the test. […] As a control, a 5% w/v aqueous solution of gum arabic was administered to a control group of rats, without any test drug. Blood platelet aggregation was tested according to the method of P. Lumley and P. P. A. Humphrey [J. Pharmacol. Methods 6, 153-166 (1981)]with a partial modification. […] The blood platelet aggregation rate was calculated from the following equation. […] The inhibitory effect was calculated as the percent inhibition of the treated groups as compared with the control groups.

Compound | inhibition at 30 mg/kg (30 mg/kg (footnote *)) [%] | inhibition at 3 mg/kg [%] | inhibition at 10 mg/kg [%] | inhibition at 1 mg/kg [%]
Clc1ccccc1CN1CCc2sccc2C1 [Compound A, 5 (2-chlorobenzyl)-4,5,6,7-tetrahydrothieno[3,2-c]pyridine, reference compound] | 3.7 |  |  | 
COC(=O)C(c1ccccc1Cl)N1CCc2sccc2C1 (stereo not drawn) [Compound B, 5-(2-chloro-α-methoxycarbonylbenzyl) 4,5,6,7-tetrahydrothieno[3,2-c]pyridine, reference compound] |  | 25.7 | 98.8 | 
CCC(=O)C(c1ccccc1F)N1CCc2sccc2C1 (stereo not drawn) [Compound No. 19, 5-(2-Fluoro-α-propionylbenzyl)-4,5,6,7-tetrahydrothieno[3,2-c]pyridine] |  | 29.3 | 97.8 | 
O=C(C1CC1)C(c1ccccc1F)N1CCc2sccc2C1 (stereo not drawn) [Compound No. 59, 5-(α-Cyclopropylcarbonyl-2-fluorobenzyl)-4,5,6,7-tetrahydrothieno[3,2-c]pyridine] |  | 98.1 |  | 57.1
O=C(C1CC1)C(c1ccccc1Cl)N1CCc2sccc2C1 (stereo not drawn) [Compound No. 60, 5-(2-Chloro-α-cyclopropylcarbonylbenzyl)-4,5,6,7-tetrahydrothieno[3,2-c]pyridine] |  | 74.2 | 100 | 
CC(=O)Oc1cc2c(s1)CCN(C(C(=O)C1CC1)c1ccccc1F)C2 (stereo not drawn) [Compound No. 190, 2-Acetoxy-5-(α-cyclopropylcarbonyl-2-fluorobenzyl)4,5,6,7-tetrahydrothieno[3,2-c]pyridine] |  |  |  | 100
CCCC(=O)Oc1cc2c(s1)CCN(C(C(=O)C1CC1)c1ccccc1F)C2 (stereo not drawn) [Compound No. 194, 2-Butyryloxy-5-(α-cyclopropylcarbonyl-2-fluorobenzyl)4,5,6,7-tetrahydrothieno[3,2-c]pyridine] |  |  |  | 100
CC(C)(C)C(=O)Oc1cc2c(s1)CCN(C(C(=O)C1CC1)c1ccccc1F)C2 (stereo not drawn) [Compound No. 196, 5-(α-Cyclopropylcarbonyl-2-fluorobenzyl)-2-pivaloyloxy-4,5,6,7-tetrahydrothieno[3,2-c]pyridine] |  |  |  | 97.6
O=C1C=C2CN(C(C(=O)C3CC3)c3ccccc3Cl)CCC2S1 (stereo not drawn) [Compound No. 233, 5-(2-Chloro-α-cyclopropylcarbonylbenzyl)-2-oxo-2,4,5,6,7,7a-hexahydrothieno[3,2-c]pyridine] |  |  | 98.9 | 
O=C1C=C2CN(C(C(=O)C3CC3)c3ccccc3F)CCC2S1 (stereo not drawn) [Compound No. 235, 5-(α-Cyclopropylcarbonyl-2-fluorobenzyl)-2-oxo-2,4,5,6,7,7a-hexahydrothieno[3,2-c]pyridine] |  |  |  | 98.8
